Here are results for six molecules from US6596477B1, “Treatment and prevention of immunodeficiency virus infection by administration of non-pyrogenic derivatives of lipid A” (University of Maryland Biotechnology Institute, priority 1998, dated 2003).

In data set [1] the test system is mice. Particulars: cited from earlier work.
Data set [2] concerns HIV-1. Particulars: AIDS patients; cited from earlier work.
In data set [3] the test system is mice. Particulars: cited from earlier work. This is another data set of the same source.
Data set [4] deals with HIV-1. Particulars: alone; cited from earlier work.
A further data set has as its system HIV-1BAL. Put plainly: HIV-1BAL replication (p24 ELISA) in human PBMC-derived monocytes pretreated 24 hours. The data set is classed as cell-based. Particulars: 1000, 100 and 10 ng/ml for 24 hours; 19 days after infection; FIG. 5. The method, then:
To investigate the utility of the aforementioned findings, we investigated whether commercially available synthetic lipid IVA (ICN Inc.) suppressed the replication of HIV-1BAL in human PBMC-derived monocytes. Therefore, PBMCs were obtained as outlined in Section 6, see above, and placed into 12 well culture flat-bottom plate and incubated in CM (see example 1) for 12 days at 37° C. in 5% Co2. Non-adherent cells were removed and the cells were given fresh media every 2 days. After 6 days, the adherent PBMCs were treated with synthetic lipid IVA at 1000 ng/ml, 100 ng/ml and 10 ng/ml for 24 hours. The treated cells were subsequently infected with 0.200 ng of HIV-1BAL (Cocchi et al, supra) for 2 hours, washed twice and incubated for a further 19 days. Culture supernatants were then collected and the level of p24 in these supernatants was measured by ELISA (R&D Systems).
PBMC-derived monocytes were obtained as outlined in Section 8, see above. […] The treated cells were subsequently infected with 0.200 ng of HIV-1BAL (Cocchi et al., supra) for 2 hours, washed twice and incubated for a further 19 days. Culture supernatants were then collected and the level of p24 in these supernatants was measured by ELISA (R&D Systems).

The subject of data set [5] is human PBMCs. Put plainly: human PBMC activation assay: proinflammatory cytokines (TNFα, IL-1β, IL-6) in supernatants by capture ELISA. The format is cell-based. Particulars: 1 μg/ml; 8 hr.
Experimental: 50 ml of whole blood is mixed with an equal volume of RPMI (Life Technologies) and PBMCs are isolated by density gradient using lymphocyte separation medium according to the manufacturer's directions (Organon). The PBMCs are washed twice with RPMI then resuspended in 6 ml of ice cold sterile water and placed on ice for 30 sec to lyse the erythrocytes. The osmolarity is adjusted by adding 2 ml of ice cold 3.5% (w/v) NaCl; the PBMCs are harvested by centrifugation, washed with RPMI and resuspended in complete medium (CM; RPMI containing pyruvate, glutamine, PenStrep, and 10% endotoxin-free human AB serum (Life Technologies) at a density of 6×10^6 PBMCs/ml. CM containing the preparations to be assayed are placed into duplicate wells of a 96-well flat bottom culture late (Costar) at double the target final concentration. An equal volume of CM containing the PBMCs then is added to these wells and the culture plates are incubated at 37° C. in 5% CO2 for 8 hr. The supernatants are then removed and stored at 70° C. Quantitation of TNFα, IL-1β, IL-6, MIP-1α, MIP-1β and RANTES in these culture supernatants is achieved by capture ELISA (R&D Systems).
For data set [6], the system named is human PBMCs. Put plainly: LPS antagonist test: TNFα from human PBMCs stimulated with W3110 LPS mixed with antagonist. The data set is classed as cell-based. Particulars: 1 μg/ml mixed with W3110 LPS 10 ng/ml; 8 hr. As for the experimental part: Quantitation of TNFα, IL-1β, IL-6, MIP-1α and MIP-1β in these culture supernatants was achieved by capture ELISA (R&D Systems).
W3110 LPS (also cultured at 37° C.) from 1 ng/ml to 100 ng/ml alone and W3110 LPS (10 ng/ml) mixed with synthetic lipid IVA (1 μg/ml) were used as controls.

The test system of data set [7] is human PBMCs. Put plainly: β chemokine (MIP-1α, MIP-1β, RANTES) secretion from human PBMCs, dose and time course, capture ELISA. The data set is classed as cell-based.

As for R. sphaeroides lipid A [RSLA], the LPS induced lethality result in the data set on mice [1] is recorded as “prevents LPS induced lethality in mice”.
Regarding `CC(C)c1nc(CN(C)C(=O)N[C@H](C(=O)N[C@@H](Cc2ccccc2)C[C@H](O)[C@H](Cc2ccccc2)NC(=O)OCc2cncs2)C(C)C)cs1` [ABT-538], in the data set on HIV-1 [2], the CD4 lymphocyte counts result is reported as “CD4 lymphocyte counts to rise substantially” and the “plasma HIV-1 levels” value is recorded as “causes plasma HIV-1 levels to decrease exponentially”.
As to “2,3-diacyl-glucosamine-1-phosphate [lipid X]”, in the data set on mice [3], the “pyrogenicity / toxicity in mice” value is “non-pyrogenic in mice”.
In the case of `Cc1cn([C@H]2C[C@H](N=[N+]=[N-])[C@@H](CO)O2)c(=O)[nH]c1=O` [AZT, 3′-azido-2′,3′-dideoxythymidine], the “effect on viral load” value with HIV-1 [4] is on record as “about 1 log reduction”.
With `CCCCCCCCCCC[C@@H](O)CC(=O)N[C@H]1[C@H](OC[C@H]2O[C@H](OP(=O)(O)O)[C@H](NC(=O)C[C@H](O)CCCCCCCCCCC)[C@@H](OC(=O)C[C@H](O)CCCCCCCCCCC)[C@@H]2O)O[C@H](CO)[C@@H](OP(=O)(O)O)[C@@H]1OC(=O)C[C@H](O)CCCCCCCCCCC` [Lipid IVA], the “replication of HIV-1BAL (p24) in PBMC-derived monocytes” value with HIV-1BAL is “suppresses the replication of HIV-1^BAL in a dose-dependent manner”. In addition, in the data set with human PBMCs [5], the “IL-1β in human PBMC culture supernatants after stimulation with LPS” value was 13 ± 1 pg/mL and the “IL-6 in human PBMC culture supernatants after stimulation with LPS” value worked out at 7581 ± 20 pg/mL. The molecule also returned a TNFα in the data set with human PBMCs [6] of less than 30 pg/mL. The “induction of β chemokines” value in the data set with human PBMCs [7] is given as “without Inducing Measurable Levels of β Chemokines”. The “pyrogenicity / toxicity in mice” value with mice [3] is “displays similar toxicity of that of lipid A in mice”.
Regarding `CCCCCC/C=C/CCCCCC(=O)O[C@H](CCCCCCCCCCC)CC(=O)NC1C(OCC2OC(OP(=O)(O)O)C(NC(=O)CC(=O)CCCCCCCCCCC)C(OC(=O)C[C@H](O)CCCCCCC)C2O)OC(CO)C(OP(=O)(O)O)C1OC(=O)C[C@H](O)CCCCCCC` (stereo partly drawn) [RsDPLA, R. sphaeroides diphosphoryl lipid A], the “level of RANTES after stimulation” value in the data set on human PBMCs [7] (FIG. 3) is reported as “not significantly elevated”. The “time of peak production of MIP-1α and MIP-1β after stimulation” value in the data set on human PBMCs [7] (supernatants at 8, 16, 24, 48 hr, FIG. 3) was 24 h. For the same molecule, in the data set on human PBMCs [7] (various doses, FIG. 2), the MIP-1α secretion result was “stimulated the secretion of MIP-1α and MIP-1β in a dose-dependent manner”; the MIP-1β secretion result is “stimulated the secretion of MIP-1α and MIP-1β in a dose-dependent manner”.
